Experimental data from patent publication US9125913B2, “Bcl-2-selective apoptosis-inducing agents for the treatment of cancer and immune diseases” (AbbVie Inc., priority 2008, dated 2015).

Experiments:
FL5.12/Bcl-2 cells = assay: FL5.12/Bcl-2 cell viability assay; format: cell-based, murine; details: ratio of canine platelet EC50 to FL5.12/Bcl-2 EC50
Outline: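 Murine IL-3-dependent FL5.12 cells stably overexpressing Bcl-2 were deprived of IL-3 (WEHI-3B conditioned medium omitted) for 48 hrs, then exposed to various compound concentrations for a further 24 hrs at 37° C, 5% CO2. Viability was read by CellTitre Glo luminescence.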

GST-Bcl-2 = assay: TR-FRET binding assay, Bcl-2; details: TR-FRET Ki values
Outline: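 Compounds serially diluted in DMSO from 50 μM (2× starting concentration, 10% DMSO), mixed with GST-tagged protein, F-Bak peptide probe and Tb-labeled antibody, incubated 3 h at room temperature.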

Row | SMILES | Selectivity Ratio (Platelet EC50/FL5.12/Bcl-2 EC50) (FL5.12/Bcl-2 cells) | Binding selectivity ratio (Bcl-XL Ki/Bcl-2 Ki) (GST-Bcl-2)
1 | CC(C)N(CCOc1ccc(-c2ccc(Cl)cc2)c(CN2CCN(c3ccc(C(=O)NS(=O)(=O)c4ccc(NCC5CCOCC5)c([N+](=O)[O-])c4)c(Oc4ccccc4)c3)CC2)c1)C(C)C [Example 139, 4-[4-({4′-chloro-4-[2-(diisopropylamino)ethoxy]-1,1′-biphenyl-2-yl}methyl)piperazin-1-yl]-N-({3-nitro-4-[(tetrahydro-2H-pyran-4-ylmethyl)amino]phenyl}sulfonyl)-2-phenoxybenzamide] | 841 | 103.1
2 | CC1(C)CCC(CN2CCN(c3ccc(C(=O)NS(=O)(=O)c4ccc(NCCCN5CCCC5)c([N+](=O)[O-])c4)c(Oc4cccc5[nH]ccc45)c3)CC2)=C(c2cccc(F)c2)C1 [Example 72, 4-(4-{[2-(3-fluorophenyl)-4,4-dimethylcyclohex-1-en-1-yl]methyl}piperazin-1-yl)-2-(1H-indol-4-yloxy)-N-({3-nitro-4-[(3-pyrrolidin-1-ylpropyl)amino]phenyl}sulfonyl)benzamide] | >325 | 17.3
3 | CN1CCN(CCCNc2ccc(S(=O)(=O)NC(=O)c3ccc(N4CCN(Cc5ccccc5-c5ccc(Cl)cc5)CC4)cc3Oc3ccccc3)cc2[N+](=O)[O-])CC1 [Example 86, 4-{4-[(4′-chloro-1,1′-biphenyl-2-yl)methyl]piperazin-1-yl}-N-[(4-{[3-(4-methylpiperazin-1-yl)propyl]amino}-3-nitrophenyl)sulfonyl]-2-phenoxybenzamide] | 489 | 49.6
4 | CC1(C)CCC(CN2CCN(c3ccc(C(=O)NS(=O)(=O)c4ccc(NCCCN5CCCC5)c([N+](=O)[O-])c4)c(Oc4cccc5[nH]ccc45)c3)CC2)=C(c2ccc(Cl)cc2)C1 [Example 102, 4-(4-{[2-(4-chlorophenyl)-4,4-dimethylcyclohex-1-en-1-yl]methyl}piperazin-1-yl)-2-(1H-indol-4-yloxy)-N-({3-nitro-4-[(3-pyrrolidin-1-ylpropyl)amino]phenyl}sulfonyl)benzamide] | 996 | 64.1
5 | CN(C)CCOc1cccc(-c2ccc(Cl)cc2)c1CN1CCN(c2ccc(C(=O)NS(=O)(=O)c3ccc(NCC4CCOCC4)c([N+](=O)[O-])c3)c(Oc3ccccc3)c2)CC1 [Example 122, 4-[4-({4′-chloro-3-[2-(dimethylamino)ethoxy]-1,1′-biphenyl-2-yl}methyl)piperazin-1-yl]-N-({3-nitro-4-[(tetrahydro-2H-pyran-4-ylmethyl)amino]phenyl}sulfonyl)-2-phenoxybenzamide] | >1259 | 209.4
6 | CN(C)CCCNc1ccc(S(=O)(=O)NC(=O)c2ccc(N3CCN(Cc4ccccc4-c4ccc(Cl)cc4)CC3)cc2Oc2ccc3ccccc3c2)cc1[N+](=O)[O-] [Example 166, 4-{4-[(4′-chloro-1,1′-biphenyl-2-yl)methyl]piperazin-1-yl}-N-[(4-{[3-(dimethylamino)propyl]amino}-3-nitrophenyl)sulfonyl]-2-(2-naphthyloxy)benzamide] | >327 | 7.1
7 | CN1CCC(Nc2ccc(S(=O)(=O)NC(=O)c3ccc(N4CCN(CC5=C(c6ccc(Cl)cc6)CC(C)(C)OC5)CC4)cc3Oc3ccc4[nH]ccc4c3)cc2[N+](=O)[O-])CC1 [Example 150, 4-(4-{[4-(4-chlorophenyl)-6,6-dimethyl-5,6-dihydro-2H-pyran-3-yl]methyl}piperazin-1-yl)-2-(1H-indol-5-yloxy)-N-({4-[(1-methylpiperidin-4-yl)amino]-3-nitrophenyl}sulfonyl)benzamide] | 509 | 667
8 | CC1(C)CCC(c2ccc(Cl)cc2)=C(CN2CCN(c3ccc(C(=O)NS(=O)(=O)c4ccc(NCCCN5CCOCC5)c([N+](=O)[O-])c4)c(Oc4cccc5[nH]ccc45)c3)CC2)C1 [Example 54, 4-(4-{[2-(4-chlorophenyl)-5,5-dimethylcyclohex-1-en-1-yl]methyl}piperazin-1-yl)-2-(1H-indol-4-yloxy)-N-({4-[(3-morpholin-4-ylpropyl)amino]-3-nitrophenyl}sulfonyl)benzamide] | >785 | 108.3
9 | O=C(NS(=O)(=O)c1ccc(NCC2CCOCC2)c([N+](=O)[O-])c1)c1ccc(N2CCN(Cc3cc(CCN4CCCC4)ccc3-c3ccc(Cl)cc3)CC2)cc1Oc1cccc2[nH]ccc12 [Example 25, 4-(4-{[4′-chloro-4-(2-pyrrolidin-1-ylethyl)-1,1′-biphenyl-2-yl]methyl}piperazin-1-yl)-2-(1H-indol-4-yloxy)-N-({3-nitro-4-[(tetrahydro-2H-pyran-4-ylmethyl)amino]phenyl}sulfonyl)benzamide] | >1020 | 4103.8
10 | CN1CCC(Nc2ccc(S(=O)(=O)NC(=O)c3ccc(N4CCN(CC5=C(c6ccc(Cl)cc6)CC(C)(C)CC5)CC4)cc3Oc3ccc4[nH]ncc4c3)cc2[N+](=O)[O-])CC1 [Example 21, 4-(4-{[2-(4-chlorophenyl)-4,4-dimethylcyclohex-1-en-1-yl]methyl}piperazin-1-yl)-2-(1H-indazol-5-yloxy)-N-({4-[(1-methylpiperidin-4-yl)amino]-3-nitrophenyl}sulfonyl)benzamide] | >49 | 35.1
11 | CN(C)CCCOc1ccc(S(=O)(=O)NC(=O)c2ccc(N3CCN(CC4=C(c5ccc(Cl)cc5)CC(C)(C)CC4)CC3)cc2Oc2ccc3[nH]ccc3c2)cc1[N+](=O)[O-] [Example 100, 4-(4-{[2-(4-chlorophenyl)-4,4-dimethylcyclohex-1-en-1-yl]methyl}piperazin-1-yl)-N-({4-[3-(dimethylamino)propoxy]-3-nitrophenyl}sulfonyl)-2-(1H-indol-5-yloxy)benzamide] | 2029 | 71.4
12 | CN1CCC(Nc2ccc(S(=O)(=O)NC(=O)c3ccc(N4CCN(CC5=C(c6ccc(Cl)cc6)CC(C)(C)CC5)CC4)cc3Oc3ccccc3)cc2[N+](=O)[O-])CC1 [Example 152, 4-(4-{[2-(4-chlorophenyl)-4,4-dimethylcyclohex-1-en-1-yl]methyl}piperazin-1-yl)-N-({4-[(1-methylpiperidin-4-yl)amino]-3-nitrophenyl}sulfonyl)-2-phenoxybenzamide] | 283 | 15.8
13 | O=C(NS(=O)(=O)c1ccc(NCCCN2CCOCC2)c([N+](=O)[O-])c1)c1ccc(N2CCN(Cc3ccccc3-c3ccc(Cl)cc3)CC2)cc1Oc1ccccc1 [Example 155, 4-{4-[(4′-chloro-1,1′-biphenyl-2-yl)methyl]piperazin-1-yl}-N-({4-[(3-morpholin-4-ylpropyl)amino]-3-nitrophenyl}sulfonyl)-2-phenoxybenzamide] | >119 | 77.8
14 | CN(C)CCOc1ccc(-c2ccc(Cl)cc2)c(CN2CCN(c3ccc(C(=O)NS(=O)(=O)c4ccc(NCC5CCOCC5)c(S(=O)(=O)C(F)(F)F)c4)c(Oc4ccccc4)c3)CC2)c1 [Example 120, 4-[4-({4′-chloro-4-[2-(dimethylamino)ethoxy]-1,1′-biphenyl-2-yl}methyl)piperazin-1-yl]-2-phenoxy-N-({4-[(tetrahydro-2H-pyran-4-ylmethyl)amino]-3-[(trifluoromethyl)sulfonyl]phenyl}sulfonyl)benzamide] | >157 | 224.8
15 | CN(C)CCOc1cccc(-c2ccc(Cl)cc2)c1CN1CCN(c2ccc(C(=O)NS(=O)(=O)c3ccc(NCCCN4CCCC4)c([N+](=O)[O-])c3)c(Oc3ccccc3)c2)CC1 [Example 123, 4-[4-({4′-chloro-3-[2-(dimethylamino)ethoxy]-1,1′-biphenyl-2-yl}methyl)piperazin-1-yl]-N-({3-nitro-4-[(3-pyrrolidin-1-ylpropyl)amino]phenyl}sulfonyl)-2-phenoxybenzamide] | 32 | 91.5
16 | O=C(NS(=O)(=O)c1ccc(NCC2CCOCC2)c([N+](=O)[O-])c1)c1ccc(N2CCN(Cc3cc(OCCN4CCOCC4)ccc3-c3ccc(Cl)cc3)CC2)cc1Oc1cccc2[nH]ccc12 [Example 130, 4-(4-{[4′-chloro-4-(2-morpholin-4-ylethoxy)-1,1′-biphenyl-2-yl]methyl}piperazin-1-yl)-2-(1H-indol-4-yloxy)-N-({3-nitro-4-[(tetrahydro-2H-pyran-4-ylmethyl)amino]phenyl}sulfonyl)benzamide] | >254 | >4714.3
17 | O=C(NS(=O)(=O)c1ccc(NCC2CCOCC2)c([N+](=O)[O-])c1)c1ccc(N2CCN(Cc3ccccc3-c3ccc(Cl)cc3)CC2)cc1Oc1cccc2[nH]ccc12 [Example 45, 4-{4-[(4′-chloro-1,1′-biphenyl-2-yl)methyl]piperazin-1-yl}-2-(1H-indol-4-yloxy)-N-({3-nitro-4-[(tetrahydro-2H-pyran-4-ylmethyl)amino]phenyl}sulfonyl)benzamide] | >360 | >797.1
18 | CN1CCC(Nc2ccc(S(=O)(=O)NC(=O)c3ccc(N4CCN(Cc5ccccc5-c5ccc(Cl)cc5)CC4)cc3Oc3ccccc3)cc2[N+](=O)[O-])CC1 [Example 89, 4-{4-[(4′-chloro-1,1′-biphenyl-2-yl)methyl]piperazin-1-yl}-N-({4-[(1-methylpiperidin-4-yl)amino]-3-nitrophenyl}sulfonyl)-2-phenoxybenzamide] | 495 | 57.8
